Data published in ChEMBL document CHEMBL1201862, “PubChem BioAssay data set” (2004).
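Five concentrations, 48 hours, 96-well plates. GI50 marks 50% less growth.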 Activity calls are given as the source filed them. Cut-off read from the data, not from the text of the source: active = GI50 up to about 1.1 µM and inactive = higher.

Key:
Experiment in all cases: NCI tumour cell line growth inhibition, 48 h
[1] = system: HT-29
[2] = system: SNB-19
[3] = system: IGROV-1
[4] = system: NCI/ADR-RES
[5] = system: CAKI-1
[6] = system: MDA-MB-435
[7] = system: NCI-H23
[8] = system: UO-31
[9] = system: SK-MEL-5
[10] = system: SF-295
[11] = system: LOX IMVI
[12] = system: OVCAR-4
[13] = system: MDA-N
[14] = system: PC-3
[15] = system: T47D
[16] = system: TK-10
[17] = system: HOP-62
[18] = system: MDA-MB-231
[19] = system: HOP-92
[20] = system: M14
[21] = system: NCI-H460
[22] = system: OVCAR-8
[23] = system: MOLT-4
[24] = system: SNB-75
[25] = system: OVCAR-5
[26] = system: COLO 205
[27] = system: SK-OV-3
[28] = system: EKVX
[29] = system: SW-620
[30] = system: HCC 2998
[31] = system: DU-145
[32] = system: KM12
[33] = system: ACHN
[34] = system: RXF 393
[35] = system: MCF7
[36] = system: K562
[37] = system: SF-268
[38] = system: UACC-257
[39] = system: CCRF-CEM
[40] = system: UACC-62
[41] = system: RPMI-8226
[42] = system: NCI-H226
[43] = system: SK-MEL-2
[44] = system: SK-MEL-28
[45] = system: SF-539
[46] = system: HCT-116
[47] = system: SN12C
[48] = system: OVCAR-3
[49] = system: A549
[50] = system: BT-549
[51] = system: U-251
[52] = system: A498
[53] = system: Malme-3M
[54] = system: 786-0
[55] = system: NCI-H522
[56] = system: HCT-15
[57] = system: SR

## Cc1ccc(S(=O)(=O)N2c3ccccc3[C@H]3CCc4c([nH]c5ccccc45)[C@H]32)cc1
[1]
  GI50: > 100 µM (inactive)
[2]
  GI50: > 100 µM (inactive)
[3]
  GI50: 0.789 µM (active)
[4]
  GI50: > 100 µM (inactive)
[5]
  GI50: 4.33 µM (inactive)
[6]
  GI50: 48.3 µM (inactive)
[7]
  GI50: > 100 µM (inactive)
[8]
  GI50: > 100 µM (inactive)
[9]
  GI50: 32 µM (inactive)
[10]
  GI50: > 100 µM (inactive)
[11]
  GI50: > 100 µM (inactive)
[12]
  GI50: 0.942 µM (active)
[13]
  GI50: 30 µM (inactive)
[14]
  GI50: > 100 µM (inactive)
[15]
  GI50: > 100 µM (inactive)
[16]
  GI50: > 100 µM (inactive)
[17]
  GI50: 84.9 µM (inactive)
[18]
  GI50: 0.65 µM (active)
[19]
  GI50: > 100 µM (inactive)
[20]
  GI50: > 100 µM (inactive)
[21]
  GI50: > 100 µM (inactive)
[22]
  GI50: > 100 µM (inactive)
[23]
  GI50: 66.1 µM (inactive)
[24]
  GI50: > 100 µM (inactive)
[25]
  GI50: > 100 µM (inactive)
[26]
  GI50: > 100 µM (inactive)
[27]
  GI50: > 100 µM (inactive)
[28]
  GI50: > 100 µM (inactive)
[29]
  GI50: > 100 µM (inactive)
[30]
  GI50: > 100 µM (inactive)
[31]
  GI50: > 100 µM (inactive)
[32]
  GI50: 17.9 µM (inactive)
[33]
  GI50: > 100 µM (inactive)
[34]
  GI50: > 100 µM (inactive)
[35]
  GI50: > 100 µM (inactive)
[36]
  GI50: 23.4 µM (inactive)
[37]
  GI50: > 100 µM (inactive)
[38]
  GI50: > 100 µM (inactive)
[39]
  GI50: 70 µM (inactive)
[40]
  GI50: > 100 µM (inactive)
[41]
  GI50: 29.2 µM (inactive)
[42]
  GI50: 15.3 µM (inactive)
[43]
  GI50: > 100 µM (inactive)
[44]
  GI50: > 100 µM (inactive)
[45]
  GI50: 27.7 µM (inactive)
[46]
  GI50: > 100 µM (inactive)
[47]
  GI50: > 100 µM (inactive)
[48]
  GI50: > 100 µM (inactive)
[49]
  GI50: > 100 µM (inactive)
[50]
  GI50: > 100 µM (inactive)
[51]
  GI50: > 100 µM (inactive)

## COc1cc2c(cc1OCCCCCN1C(=O)c3cccc4cccc(c34)C1=O)N=C[C@@H]1CCCN1C2=O
[1]
  GI50: 0.286 µM (active)
[2]
  GI50: 0.327 µM (active)
[3]
  GI50: 0.0552 µM (active)
[4]
  GI50: 0.421 µM (active)
[5]
  GI50: 0.208 µM (active)
[6]
  GI50: 0.167 µM (active)
[7]
  GI50: 0.222 µM (active)
[8]
  GI50: 0.153 µM (active)
[9]
  GI50: 0.257 µM (active)
[10]
  GI50: 0.386 µM (active)
[11]
  GI50: 0.126 µM (active)
[12]
  GI50: 0.248 µM (active)
[13]
  GI50: 0.207 µM (active)
[14]
  GI50: 0.282 µM (active)
[15]
  GI50: 0.13 µM (active)
[16]
  GI50: 0.129 µM (active)
[17]
  GI50: 0.262 µM (active)
[52]
  GI50: 0.31 µM (active)
[18]
  GI50: 0.286 µM (active)
[19]
  GI50: 0.142 µM (active)
[20]
  GI50: 0.24 µM (active)
[21]
  GI50: 0.316 µM (active)
[22]
  GI50: 0.281 µM (active)
[23]
  GI50: 0.0743 µM (active)
[24]
  GI50: 0.34 µM (active)
[53]
  GI50: 0.163 µM (active)
[25]
  GI50: 0.406 µM (active)
[26]
  GI50: 0.28 µM (active)
[54]
  GI50: 0.249 µM (active)
[27]
  GI50: 0.514 µM (active)
[28]
  GI50: 0.492 µM (active)
[29]
  GI50: 0.278 µM (active)
[30]
  GI50: 0.3 µM (active)
[31]
  GI50: 0.255 µM (active)
[32]
  GI50: 0.231 µM (active)
[33]
  GI50: 0.167 µM (active)
[34]
  GI50: 0.0647 µM (active)
[35]
  GI50: 0.181 µM (active)
[36]
  GI50: 0.114 µM (active)
[37]
  GI50: 0.207 µM (active)
[38]
  GI50: 0.323 µM (active)
[55]
  GI50: 0.0336 µM (active)
[39]
  GI50: 0.0142 µM (active)
[56]
  GI50: 0.331 µM
[40]
  GI50: 0.13 µM (active)
[41]
  GI50: 0.119 µM (active)
[42]
  GI50: 0.177 µM (active)
[43]
  GI50: 0.223 µM (active)
[44]
  GI50: 0.301 µM (active)
[45]
  GI50: 0.0646 µM (active)
[46]
  GI50: 0.215 µM (active)
[47]
  GI50: 0.336 µM (active)
[48]
  GI50: 0.184 µM (active)
[57]
  GI50: < 0.01 µM (active)
[49]
  GI50: 0.535 µM (active)
[50]
  GI50: 0.244 µM (active)
[51]
  GI50: 0.249 µM (active)

## O=C(/C=C1/Nc2ccc([N+](=O)[O-])cc2N/C1=C/C(=O)c1ccc(Cl)cc1)c1ccc(Cl)cc1
[1]
  GI50: > 100 µM (inactive)
[2]
  GI50: > 100 µM (inactive)
[3]
  GI50: > 100 µM (inactive)
[4]
  GI50: 43.2 µM (inactive)
[5]
  GI50: > 100 µM (inactive)
[6]
  GI50: > 100 µM (inactive)
[7]
  GI50: 11.6 µM (inactive)
[8]
  GI50: > 100 µM (inactive)
[9]
  GI50: 33.3 µM (inactive)
[10]
  GI50: 91 µM (inactive)
[12]
  GI50: > 100 µM (inactive)
[13]
  GI50: > 100 µM (inactive)
[14]
  GI50: 41.4 µM (inactive)
[15]
  GI50: > 100 µM (inactive)
[16]
  GI50: > 100 µM (inactive)
[17]
  GI50: > 100 µM (inactive)
[52]
  GI50: 10.1 µM (inactive)
[18]
  GI50: > 100 µM (inactive)
[20]
  GI50: > 100 µM (inactive)
[21]
  GI50: 42.9 µM (inactive)
[22]
  GI50: 54.8 µM (inactive)
[23]
  GI50: > 100 µM (inactive)
[24]
  GI50: > 100 µM (inactive)
[53]
  GI50: > 100 µM (inactive)
[25]
  GI50: > 100 µM (inactive)
[26]
  GI50: > 100 µM (inactive)
[54]
  GI50: > 100 µM (inactive)
[28]
  GI50: > 100 µM (inactive)
[30]
  GI50: > 100 µM (inactive)
[31]
  GI50: > 100 µM (inactive)
[32]
  GI50: > 100 µM (inactive)
[33]
  GI50: > 100 µM (inactive)
[34]
  GI50: 66.5 µM (inactive)
[35]
  GI50: 49.5 µM (inactive)
[36]
  GI50: 31.9 µM (inactive)
[37]
  GI50: 60.5 µM (inactive)
[38]
  GI50: > 100 µM (inactive)
[55]
  GI50: 4.41 µM (inactive)
[39]
  GI50: 34.4 µM (inactive)
[56]
  GI50: 24.2 µM
[40]
  GI50: 49.4 µM (inactive)
[42]
  GI50: > 100 µM (inactive)
[43]
  GI50: 13.6 µM (inactive)
[45]
  GI50: > 100 µM (inactive)
[46]
  GI50: 15 µM (inactive)
[47]
  GI50: 17.7 µM (inactive)
[48]
  GI50: 80.2 µM (inactive)
[57]
  GI50: > 100 µM (inactive)
[49]
  GI50: > 100 µM (inactive)
[50]
  GI50: > 100 µM (inactive)
[51]
  GI50: > 100 µM (inactive)
